Entries after “also recorded” stand apart in the source; their conditions may differ.
Assays:
Melan-A cells = test: Measurement of eumelanin in murine melanocytes; type: cell-based
human skin explants [1] = test: H&E staining of treated skin samples (inflammation, skin damage); type: cell-based; details: 50 mM, skin patches
Dermal Fibroblasts = test: Toxicity via ATP-based assay (Cell titer glow); details: ATP-based assay 2 days after start of treatment
human skin = test: Cyclobutane dimer (CPD) staining of treated human skin, DNA damage; type: cell-based; details: 50 mM once per day for 5 days; for CPD formation after UVB irradiation: then 1000 mJ/cm^2 UVB, vs DMSO+UVB control
Procedure: Cyclobutane dimer (CPD) staining was performed on human skin treated with 50 mM 2,3butanedione for 5 consecutive days (treatment once per day) as a marker to assess DNA damage in the skin samples. On the fifth day, skin was irradiated with 1000 mJ/cm^2 UVB (equivalent to approximately 3 h in the sun at equatorial areas).

Melanocytes 2 = test: Toxicity via ATP-based assay (Cell titer glow); details: ATP-based assay 2 days after start of treatment
Procedure: (§1) Three different NNT inhibitors were tested for efficacy and toxicity in melanocytes and melanoma cells. […] Toxicity measured via ATP-based assays (Cell titer glow) 2 days after start of treatment.

Melanocytes 1 = test: Toxicity via ATP-based assay (Cell titer glow); details: ATP-based assay 2 days after start of treatment
Procedure: as §1

human skin explants [2] = test: Pigmentation of human skin explants treated topically or intradermally with NNT inhibitors (visual inspection, colorimeter, Fontana-Masson staining); type: cell-based; details: for microscopic pigmentation / eumelanin, Fontana-Masson staining: 50 mM, once per day for 5 consecutive days; for human skin pigmentation (darkening): daily application for 5 days
Procedure: Human skin explants obtained from subjects undergoing abdominoplasty were defatted and grown on 2% agar plates for 10 days. These explants were treated topically or intradermally with NNT inhibitors. […]
In addition, skin patches (Fitzpatrick Type II) were topically treated for 4 days with 2,3 butane-dione at the following concentrations: 0.4% w/v (˜47 mM), 0.8% w/v, 1.6% w/v, 3.12% w/v, 6.25% w/v, 12.5% w/v, and 25% w/v.

Keratinocytes = test: Toxicity via ATP-based assay (Cell titer glow); details: ATP-based assay 2 days after start of treatment
[3] = test system: primary melanocytes (PM) WM26 cells; test: GSH/GSSG measurements after DCC treatment; type: cell-based, human; details: primary melanocytes WM26, 3 days after DCC treatment
Procedure: (§2) FIGS. 7A-7C show GSH/GSSG ratios 3 days after N,N-Dicyclohexylcarbodiimide (DCC) treatment. To confirm the observation by Moody et al. (Biochem J., 1983) that DCC and Butanedione inhibit NNT enzyme activity, GSH/GSSG measurements were performed in human melanoma and primary melanocytes. […] FIG. 7A, GSH and GSSG measurements in UACC257 melanoma cells. FIG. 7B, GSH and GSSG measurements in primary melanocytes (PM) WM26 cells. FIG. 7C, GSH/GSSG ratios of UACC257 melanoma and […] primary melanocytes. *, indicates significant differences (p<0.05).
(§3) In one embodiment GSH/GSSG ratios are determined using the GSH/GSSG-GLO assay commercially available from PROMEGA.

UACC257 melanoma cells = test: GSH/GSSG measurements after DCC treatment; type: cell-based, human; details: 3 days after DCC treatment
Procedure: as §2, §3

WM26 primary melanocytes = test: BrdU ELISA toxicity; type: cell-based, human; details: 3 days after treatment
Procedure: (§4) FIGS. 8A-8B show BrdU ELISA data 3 days after DCC treatment.
(§5) In one embodiment, the viability of a cell or the proliferation of a cell is determined using a bromodeoxyuridine (BrdU) assay. BrdU is a synthetic analog of thymidine that is commonly used in the detection of proliferating cells in living tissues. BrdU can be incorporated into the newly synthesized DNA of replicating cells (during the S phase of the cell cycle), substituting for thymidine during DNA replication. Antibodies specific for BrdU can then be used to detect the incorporated chemical, thus indicating cells that were actively replicating their DNA. BrdU assays are well known to those of skill in the art and are not described in detail herein. In some embodiments, an ATP=based measurement can be used (e.g., Cell Titer Glow™).

UACC 257 melanoma = test: BrdU ELISA toxicity; type: cell-based, human; details: 3 days after treatment
Procedure: as §4, §5

CC(=O)C(C)=O [2,3 Butanedione, 2,3-butanedione]
pigmentation (eumelanin) (Melan-A cells; 2 mM): increased pigmentation
pigmentation (eumelanin) (Melan-A cells; 10 mM): increased pigmentation
inflammation or skin damage, H&E staining (human skin explants [1]): no inflammation was observed
inflammation or skin damage, H&E staining (human skin explants [1]; listed as 2,3 BD): No significant inflammation or skin damage
IC50 (Dermal Fibroblasts; Fibroblast, 48 h): > 10 µM
CPD formation after UVB irradiation (human skin; listed as 2, 3, butanedione): decrease in CPD
CPD formation after UVB irradiation (human skin; listed as 2,3BD): protective role
CPD formation in the absence of UV radiation exposure (human skin; vs DMSO treated control): decrease in CPD formation
IC50 (Melanocytes 2; Melanocyte, 48 h): > 10 µM
IC50 (Melanocytes 1; Melanocyte, 48 h): > 10 µM
microscopic pigmentation / eumelanin, Fontana-Masson staining (human skin explants [2]): increase in eumelanin expression
microscopic pigmentation / eumelanin, Fontana-Masson staining (human skin explants [2]; listed as 2,3 BD): significant microscopic pigmentation
pigmentation compared with one-time UV-B treatment at 150 mJ/cm^2 (human skin explants [2]; Fitzpatrick Type II skin patches, topical 4 days, lowest concentration 0.4% w/v (~47 mM)): darker than the pigmentation induced by a one-time UV-B treatment
pigmentation with increasing concentrations (human skin explants [2]; Skin type 2 (Fitzpatrick Scale) explant, in DMSO): increase pigmentation
lowest dose at which visible changes in skin pigmentation were observed (human skin explants [2]; once per day for five consecutive days, all three skin types (Fitzpatrick I-II, III-IV, V-VI), lowest dose tested): 1.2 µM
human skin pigmentation (darkening) (human skin explants [2]; topical, human skin explants): visible increase of human skin pigmentation
human skin pigmentation (darkening) (human skin explants [2]; topical, human skin explants, listed as 2,3 BD): significant darkening
IC50 (Keratinocytes; Keratinocyte, 48 h): > 10 µM

C(=NC1CCCCC1)=NC1CCCCC1 [DCC, N,N-Dicyclohexylcarbodiimide]
GSH/GSSG ratios [3]: decreased in a dose-dependent manner
GSH/GSSG ratios (UACC257 melanoma cells): decreased in a dose-dependent manner
pigmentation (eumelanin) (Melan-A cells; 10 mM): increased pigmentation
IC50 (Dermal Fibroblasts): > 10 µM
IC50 (Melanocytes 2): > 10 µM
IC50 (Melanocytes 1): > 10 µM
human skin pigmentation (darkening) (human skin explants [2]; topical, human skin explants): significant darkening; also recorded: visible increase of human skin pigmentation
cell death (BrdU ELISA) (WM26 primary melanocytes): no significant induction of cell death
cell death (BrdU ELISA) (UACC 257 melanoma): no significant induction of cell death
IC50 (Keratinocytes): > 10 µM

CCCCCCCCCCCCCCCC(=O)SCCNC(=O)CCNC(=O)[C@H](O)C(C)(C)COP(=O)(O)OP(=O)(O)OC[C@H]1O[C@@H](n2cnc3c(N)ncnc32)[C@H](O)[C@@H]1OP(=O)(O)O [Palmitoyl-CoA, palmitoyl CoA]
IC50 (Dermal Fibroblasts; Fibroblast, 48 h): > 10 µM
IC50 (Melanocytes 2; Melanocyte, 48 h): > 10 µM
IC50 (Melanocytes 1; Melanocyte, 48 h): > 10 µM
skin darkening after intradermal treatment (human skin explants [2]; intradermal, human skin explants): induced darkening
skin penetration after topical application (human skin explants [2]; topical, human skin explants): unable to penetrate
IC50 (Keratinocytes; Keratinocyte, 48 h): > 10 µM
